The values that follow come from PubChem BioAssay AID1996.

Molecules are shown by their SMILES. In brackets after ≈: the same amount, converted by molar mass.

The conditions of this series: buffer; pH 7.4; 200.0 µM.
Molecule `CN(c1ccc(F)cc1)S(=O)(=O)c1ccc(Cl)c(C(=O)OCC(=O)NC2CC2)c1` registered a kinetic solubility of 11.7 µg/mL (≈ 26.5 µM).
To `Cc1ccc(-c2ncns2)cc1` belongs 0.5 µg/mL (≈ 2.84 µM); to `COc1ccccc1C(=O)NCC(=O)NNC(=O)c1cccs1`, above 50 µg/mL; to `COc1cccc(S(=O)(=O)c2nc(C)c3c(n2)CCC3)c1`, above 45.7 µg/mL.
Molecule `Cc1ccc(C23CC4CC(CC(C(=O)N(C)C)(C4)C2)C3)cc1` gave a solubility (kinetic) of 2.4 µg/mL (≈ 8.07 µM).
`CC(C)OP(=O)(c1ccc(N(C)C)cc1)C(O)c1cccnc1` (configuration not stated): the solubility (kinetic) is above 50.2 µg/mL.
With `C=CCn1c(=O)c(C(=O)Nc2cc(C)ccn2)c(O)c2ccccc21` the figure was below 0.2 µg/mL; with `Cc1ccc(CC(=O)Nc2cc(C)on2)cc1`, 14 µg/mL (≈ 60.8 µM).
With `NC(=O)c1cc[n+](Cc2ccc([N+](=O)[O-])cc2)cc1.[Br-]` the figure was above 50.7 µg/mL.
Turning to `CNC(=O)c1cc(S(=O)(=O)NCc2ccncc2)ccc1OC`, the kinetic solubility is above 50.3 µg/mL.
With `Cc1nc2ccccc2cc1C(=O)NCc1ccc(F)cc1` the figure was 20.6 µg/mL (≈ 70 µM).
To `CC(=O)N(C(C)=O)c1c(N2CCCC2)c2ccccc2oc1=O` belongs 46.1 µg/mL (≈ 147 µM); to `COc1ccccc1OCCn1cc(C(=O)C(C)C)c2ccccc21`, below 0.7 µg/mL; to `CC1(C)CCN2CCC(C)(C)c3c(O)ccc1c32.CS(=O)(=O)O`, 19.6 µg/mL.
To `COC(=O)c1ccccc1Oc1cnc2ccccc2n1` belongs above 42 µg/mL.
For `CC1Cc2ccccc2N1S(=O)(=O)c1cccc(C(=O)NCc2ccco2)c1` (configuration not stated), the solubility (kinetic) stood at 14.7 µg/mL (≈ 37.1 µM).
To `CCOc1ncccc1C(=O)OCC(=O)NC(=O)NC(C)C` belongs 44.6 µg/mL (≈ 144 µM).
To `O=C(NCC1COc2ccccc2O1)C1(c2ccccc2)CCCC1` (configuration not stated) belongs 17.8 µg/mL (≈ 52.8 µM); to `O=C1CSC(c2cccnc2)N1c1ccc(Cl)cc1` (configuration not stated), above 43.6 µg/mL; to `Cc1ccc(NC(=O)C2Cc3ccccc3C(=O)O2)cc1` (configuration not stated), 4.7 µg/mL (≈ 16.7 µM).
Turning to `Cc1ccc(NC(=O)Nc2ccon2)cc1Cl`, the solubility (kinetic) worked out at 4 µg/mL (≈ 15.9 µM).
To `Cc1ccc(S(=O)(=O)Nc2ccncc2)c(C)c1.Cl` belongs above 44.8 µg/mL; to `N#Cc1ccc(-c2cccnc2)nc1SCC(=O)c1ccccc1`, 2.8 µg/mL (≈ 8.45 µM); to `CC(=O)c1ccc(Nc2ccc([N+](=O)[O-])c3nonc23)cc1`, 4.2 µg/mL (≈ 14.1 µM).
Regarding `COc1ccccc1Oc1ccc(NC(=O)Cc2ccccc2)cc1`, the solubility (kinetic) was below 0.7 µg/mL.
With `COc1ccc(CN2C(=O)C(C)Oc3ccccc32)cc1` (configuration not stated) the figure was 23.4 µg/mL (≈ 82.6 µM); with `CNC(=O)Nc1cccc(-c2cc(-c3c(Cl)cccc3Cl)no2)c1`, below 0.3 µg/mL.
`CCn1cc(C(C)NC(=O)Nc2ccc3c(c2)OCO3)c(C)n1` (configuration not stated) registered a solubility (kinetic) above 47.5 µg/mL.
With `COc1ccc(/C(N)=N/OC(=O)c2ccc(OC)c([N+](=O)[O-])c2)cc1OC` the figure was 0.6 µg/mL (≈ 1.6 µM).
`COc1ccc(S(=O)(=O)N2CCN(CC(=O)NC(Cc3ccccc3)C(C)=O)CC2)cc1` (configuration not stated) returned a solubility (kinetic) above 68.9 µg/mL.
With `CCC(CC)C(=O)N1CCN(Cc2nc3ccccc3c(=O)[nH]2)CC1` the figure was above 51.4 µg/mL.
Consider `Cc1cc(C)c(-c2c(O)c3ccccc3n(C)c2=O)c(C)c1`, for which the solubility (kinetic) is above 44 µg/mL.
In turn, `CCCCN1CC2=C(C1=O)C(c1ccc(O)cc1)NC(=O)N2C` (configuration not stated) showed a kinetic solubility above 47.3 µg/mL.
The molecule `COc1cc(CC(=O)O)c([N+](=O)[O-])cc1OC` displayed a solubility (kinetic) above 36.2 µg/mL.
To `Cc1cccc(N(CC(=O)N2CCCC2)S(C)(=O)=O)c1` belongs 43.5 µg/mL (≈ 147 µM); to `CC(C)c1ccc(NC(=S)Nc2cccc3ccccc23)cc1`, 1.8 µg/mL (≈ 5.62 µM); to `O=C(Nc1ccc(N2CCOCC2)cc1)c1nc2ccccc2s1`, below 0.2 µg/mL.
In turn, `COc1ccc(/C=C/C(=O)OCC(=O)NCc2ccccc2Cl)cc1OC` showed a solubility (kinetic) of 8.3 µg/mL (≈ 21.3 µM).
With `CSCC(=O)Nc1ccc(F)c(Cl)c1`, the kinetic solubility was above 35.1 µg/mL.
Consider `Cc1ccc(S(=O)(=O)N2CCCC(C)C2)cc1` (configuration not stated), for which the solubility (kinetic) was determined as 21.3 µg/mL (≈ 84.1 µM).
To `Cc1[nH]c(=O)[nH]c(=O)c1S(=O)(=O)N1CCCCC1` belongs above 41 µg/mL; to `CC(=O)Nc1ccccc1NS(=O)(=O)c1ccccc1[N+](=O)[O-]`, 47.4 µg/mL (≈ 141 µM); to `O=C(NC1CC1)c1ccc(NS(=O)(=O)c2ccccc2)cc1`, above 47.5 µg/mL.
`CCc1cc(C(=O)OC)c(NC(=O)c2ccoc2C)s1` displayed a kinetic solubility below 0.6 µg/mL.
To `CCN1C(=O)c2cccc3c(S(=O)(=O)N4CCNCC4)ccc1c23` belongs above 51.8 µg/mL; to `COc1cc(C(=O)O/N=C(\N)c2ccccn2)cc(OC)c1OC`, above 49.7 µg/mL.
`COc1ccc(CN2C(=O)CCCc3ccccc32)cc1` registered a kinetic solubility above 42.2 µg/mL.
With `O=C(NCC1CCCO1)c1cccc2ccccc12` (configuration not stated), the kinetic solubility was above 38.3 µg/mL.
Regarding `O=C(NCC1CC1(Cl)Cl)Nc1ccc(Cl)c(Cl)c1` (configuration not stated), the solubility (kinetic) came to 9.1 µg/mL (≈ 27.7 µM).
`Cl.O=C(COc1ccc(F)cc1)NCCCn1ccnc1`: the solubility (kinetic) turned out to be 39.1 µg/mL.
For the molecule `Cn1c(CO)cnc1S(=O)(=O)Cc1ccc(Cl)cc1`, the kinetic solubility was above 45.1 µg/mL.
With `COc1ccc(NC(=O)c2cncn2-c2ccccc2)cc1` the figure was 42.6 µg/mL (≈ 145 µM).
`Cc1ccc2nc(/C(C#N)=C/c3ccccc3C(=O)O)[nH]c2c1` gave a kinetic solubility above 45.5 µg/mL.
The molecule `CC1CCC(NC(=O)c2ccc3c(c2)OCO3)CC1` (configuration not stated) yielded a solubility (kinetic) of 10.4 µg/mL (≈ 39.8 µM).
Regarding `O=C(COC(=O)c1cc(S(=O)(=O)N2CCCC2)ccc1O)Nc1ccc(F)cc1F`, the kinetic solubility is above 66.1 µg/mL.
With `Cc1ccc(C)c(C(=O)CCC(=O)NCc2ccc(Cl)cc2)c1` the figure was 10.9 µg/mL (≈ 33 µM).
On to `CC(=O)NCCc1nc2ccccc2n1CCOc1ccccc1C`, for which the solubility (kinetic) was above 50.6 µg/mL.
On to `Cc1sc(N)nc1-c1ccc(Oc2ccccc2)cc1`, for which the solubility (kinetic) came to 2.1 µg/mL (≈ 7.44 µM).
To `O=C(CSc1ccc2ccccc2n1)NCCCN1CCCC1=O` belongs above 51.5 µg/mL.
To `O=C(/C=C/c1ccc([N+](=O)[O-])cc1)Nc1cccc(S(=O)(=O)NC2=NCCCCC2)c1` belongs 11.5 µg/mL (≈ 26 µM).
With `CNc1nc2cccnc2s1` the figure was above 24.8 µg/mL; with `Cc1cc(C)nc(S/C=C/C(=O)c2ccc(F)cc2)n1`, below 0.3 µg/mL.
In turn, `O=C(COC(=O)/C=C/c1ccccc1Cl)NC(=O)NC1CCCC1` displayed a kinetic solubility of 8.2 µg/mL (≈ 23.4 µM).
`O=Cc1c(Nc2ccccc2Cl)nc2ccccn2c1=O` displayed a solubility (kinetic) below 0.2 µg/mL.
For the molecule `Cc1ccc(NS(=O)(=O)c2ccc3c(c2)NC(=O)CO3)cc1`, the solubility (kinetic) is 10.7 µg/mL (≈ 33.6 µM).
Consider `COc1cc(Cl)c(C)cc1Nc1ncccn1`, for which the solubility (kinetic) is 22.4 µg/mL (≈ 89.7 µM).
`C=CCNC(=O)c1ccc(CSc2nc3ccccc3s2)cc1`: the kinetic solubility came to 8.2 µg/mL (≈ 24.1 µM).
For the molecule `COc1ccc(/C=C/C(=O)NC(=S)Nc2ccccn2)cc1`, the kinetic solubility was 1.8 µg/mL (≈ 5.74 µM).
With `O=C(c1cccc([N+](=O)[O-])c1)c1ccc2c(c1)C(=O)NC2=O` the figure was 6.3 µg/mL (≈ 21.3 µM); with `O=C(/C=C/c1ccccc1)NCc1ccc2c(c1)OCO2`, 2.5 µg/mL (≈ 8.89 µM); with `CC(C)CCNC(=O)COc1cccc2c1OC(C)(C)C2`, 43.4 µg/mL (≈ 149 µM).
With `CN(CC(=O)Nc1ccc(F)c(F)c1F)C(=O)C1CCCO1` (configuration not stated) the figure was above 47.4 µg/mL; with `O=C(Nc1cc([N+](=O)[O-])ccc1F)c1ccc2ccccc2c1`, below 0.3 µg/mL; with `CC(=O)c1c(C)[nH]c(C(=O)Nc2nccs2)c1C`, 20.8 µg/mL (≈ 79 µM).
With `COc1ccc(N2C(=O)C(CN3CCCCC3)C2c2ccccc2)cc1` (configuration not stated) the figure was 51.7 µg/mL (≈ 148 µM).
`Cc1ccc(-c2csc3ncnc(N4CCN(C)CC4)c23)cc1C` gave a solubility (kinetic) of 45.7 µg/mL (≈ 135 µM).
Molecule `COc1ccc(S(=O)(=O)N2CCc3ccccc32)cc1C(=O)NCCc1ccc(S(N)(=O)=O)cc1` showed a kinetic solubility of 3.7 µg/mL (≈ 7.18 µM).
With `CN[C@@H]1CC[C@H](c2ccc(Cl)c(Cl)c2)c2ccccc21` the figure was 28.8 µg/mL (≈ 94 µM); with `Cl.O=C(COc1ccc(F)cc1)NCCN1CCCC1`, above 45.4 µg/mL; with `CN1/C(=C\C=O)C(C)(C)c2ccccc21`, above 30.2 µg/mL.
As to `NS(=O)(=O)c1ccc(NC(=O)c2ccc3nccnc3c2)cc1`, the solubility (kinetic) was 7.5 µg/mL (≈ 22.8 µM).
`C[N+](C)(C)CCOC(=O)CCC(=O)OCC[N+](C)(C)C.O.[Cl-]` returned a kinetic solubility above 59.6 µg/mL.
To `Cc1ccc(C(=O)NCC(=O)N2CCCCCCC2)cc1C` belongs above 45.4 µg/mL.
As for `C#Cc1ccc(CN2CCN(CCCc3ccccc3)C(CCO)C2)cc1` (configuration not stated), the solubility (kinetic) came out at 36.9 µg/mL (≈ 102 µM).
To `CCSCc1nc2ccccn2c1Br` belongs 34.6 µg/mL (≈ 128 µM); to `Cc1ccc(Cl)cc1NC(=O)CCCN1C(=O)c2cccnc2C1=O`, above 53.7 µg/mL; to `Cc1ccc(OCCCCN2CCc3ccccc3C2)c(C)c1.Cl`, 4.8 µg/mL.
`CCCCNC(=O)c1cc2c(=O)n3cccc(C)c3nc2s1`: the solubility (kinetic) came to 1.3 µg/mL (≈ 4.12 µM).
With `O=C(NCC1CCCCC1)c1cccnc1`, the solubility (kinetic) is 31.1 µg/mL (≈ 142 µM).
For the molecule `Cn1cnc(S(=O)(=O)Nc2cc(-c3ccc(Cl)cc3)nn2C)c1`, the kinetic solubility is above 52.8 µg/mL.
To `Cc1ccc(NC(=O)Cc2cc(C(=O)O)c3ccccc3n2)c(C)c1` belongs 2.5 µg/mL (≈ 7.48 µM); to `Cc1nc(/C(N)=N/OC(=O)c2c(-c3ccccc3Cl)noc2C)cs1`, 48.2 µg/mL (≈ 128 µM).
With `Cc1cc2oc(=O)c(CC(=O)NCCCO)c(C)c2c2occ(C(C)(C)C)c12` the figure was 28 µg/mL (≈ 72.6 µM); with `N#C/C(=C\c1ccc(O)c([N+](=O)[O-])c1)C(=O)NCc1ccccc1`, 46.2 µg/mL (≈ 143 µM).
With `Cc1cc(C)cc(CC2CC(=O)N(c3ccc([N+](=O)[O-])cc3)C2=O)c1` (configuration not stated) the figure was below 0.4 µg/mL.
Consider `CC(=O)c1sc(NC(=O)CCCOc2ccccc2C)nc1C`, for which the kinetic solubility was below 0.4 µg/mL.
Regarding `COc1ccc2c(c1)CCC(C)N2C(=O)C(=O)c1c[nH]c2ccccc12` (configuration not stated), the solubility (kinetic) is 0.6 µg/mL (≈ 1.72 µM).
To `COC(=O)c1c(C)oc(C)c1S(=O)(=O)N1CCOCC1` belongs 40.9 µg/mL (≈ 135 µM).
With `CN1C/C(=C/c2cccs2)C(=O)/C(=C\c2cccs2)C1` the figure was 24.6 µg/mL (≈ 81.6 µM); with `COC(=O)c1cn(-c2cccc(C)n2)cn1`, above 32.6 µg/mL; with `CCN(CC)C(=O)c1ccc(NC(=O)c2ccc3c(c2)NC(=O)CS3)cc1`, 6.2 µg/mL (≈ 16.2 µM).
`Cc1cc(S(=O)(=O)NCCN2CCOCC2)ccc1Cl` returned a solubility (kinetic) above 47.8 µg/mL.

As usually defined, the solubility (kinetic) is the concentration staying in solution when a stock, usually in DMSO, is diluted into the medium.
